From US20250304576A1 (Cancer Research Technology Limited, priority 2022, published 2025)
pIC50: −log10 of the molar value.

Target: T1, IKBKB (IKKβ) (Homo sapiens, UniProt O14920)
T1 construct: purchased Life Technologies (assay performed by the vendor)
T1 sequence (O14920 1-756): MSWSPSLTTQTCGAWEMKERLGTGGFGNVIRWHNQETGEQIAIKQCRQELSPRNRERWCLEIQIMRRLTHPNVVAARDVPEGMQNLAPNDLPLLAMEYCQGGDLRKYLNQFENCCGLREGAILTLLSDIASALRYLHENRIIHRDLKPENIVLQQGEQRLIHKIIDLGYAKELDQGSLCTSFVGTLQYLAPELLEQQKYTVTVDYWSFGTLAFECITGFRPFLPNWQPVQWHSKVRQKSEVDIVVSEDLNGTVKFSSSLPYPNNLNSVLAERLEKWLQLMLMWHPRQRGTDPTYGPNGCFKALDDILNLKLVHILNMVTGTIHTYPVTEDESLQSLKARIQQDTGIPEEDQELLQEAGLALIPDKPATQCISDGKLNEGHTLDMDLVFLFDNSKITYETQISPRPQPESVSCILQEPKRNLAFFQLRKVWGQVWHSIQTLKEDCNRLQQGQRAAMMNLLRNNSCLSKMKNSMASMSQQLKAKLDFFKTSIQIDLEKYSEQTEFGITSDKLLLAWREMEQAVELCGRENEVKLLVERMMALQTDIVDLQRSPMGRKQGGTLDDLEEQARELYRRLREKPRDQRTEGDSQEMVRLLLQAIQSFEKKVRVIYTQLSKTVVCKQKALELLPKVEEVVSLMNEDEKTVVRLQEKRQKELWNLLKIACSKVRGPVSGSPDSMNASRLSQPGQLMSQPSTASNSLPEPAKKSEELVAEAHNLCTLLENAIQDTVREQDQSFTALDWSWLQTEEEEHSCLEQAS
Test: Z'-LYTE IKKβ assay (Life Technologies)
Format: biochemical
Description: IKKα and IKKβ inhibitory activity was determined using three different assays: a dissociation enhanced ligand fluorescent immunoassay (DELFIA) based on the protocol of HTScan™ IKKβ Kinase Assay (Cell Signaling Technology, USA); an Adapta IKKα assay (performed by Life Technologies); a Z′-LYTE™ IKKβ assay (performed by Life Technologies).
The reaction was performed in low volume NBS, black 384-well plates (Corning model 4514).
The test compounds were screened in 1% DMSO (final) in the well. For 10 point titrations, 3-fold serial dilutions were conducted from the starting concentration of 50 mM.
The 2× IKBKB (IKKβ)/Ser/Thr 05 mixture was prepared in 50 mM HEPES pH 7.5, 0.01% BRIJ-35, 10 mM MgCl2, 1 mM EGTA. The final 10 μL Kinase Reaction consisted of 0.62-4 ng IKBKB (IKKβ) and 2 μM Ser/Thr 05 in 50 mM HEPES pH 7.5, 0.01% BRIJ-35, 10 mM MgCl2, 1 mM EGTA.
5 μL of 2× Kinase reaction was incubated with 2.5 μL of ATP solution diluted to a 4× working concentration in Kinase Buffer (50 mM HEPES pH 7.5, 0.01% BRIJ-35, 10 mM MgCl2, 1 mM EGTA) in the presence of […] of 100× test compound in 100% DMSO and 2.4 μL of Kinase buffer.
The resulting kinase reaction was allowed to incubate for 1 hour at room temperature before 5 μL of a 1:64 dilution of Development Reagent B was added and the resulting Development Reaction was incubated for another hour at room temperature. Then the plate was read on a fluorescence plate reader and the data analysed.
A ratiometric method, which calculated the Emission Ratio of donor emission (i.e. coumarin) to acceptor emission (i.e. fluorescein) after excitation of the donor fluorophore at 400 nm, was used to quantitate reaction progress, as shown in the equation below.

Compound	pIC50
CN1CCCN(Cc2cc3c(-c4ccc5[nH]nc(N)c5c4)ccnc3[nH]2)CC1 [Example 266, 5-(2-((4-Methyl-1,4-diazepan-1-yl)methyl)-1H-pyrrolo[2,3-b]pyridin-4-yl)-1H-indazol-3-amine]	6.42
Nc1n[nH]c2ccc(-c3ccnc4[nH]c(CCN5CCCCC5)cc34)cc12 [Example 267, 5-(2-(2-(Piperidin-1-yl)ethyl)-1H-pyrrolo[2,3-b]pyridine-4-yl)-1H-indazol-3-amine]	6.63
Nc1n[nH]c2ccc(-c3ccnc4[nH]c(CCN5CCOCC5)cc34)cc12 [Example 268, 5-(2-(2-Morpholinoethyl)-1H-pyrrolo[2,3-b]pyridin-4-yl)-1H-indazol-3-amine]	6.86
Nc1n[nH]c2ccc(-c3ccnc4[nH]c(CCCN5CCCCC5)cc34)cc12 [Example 269, 5-(2-(3-(Piperidin-1-yl)propyl)-1H-pyrrolo[2,3-b]pyridin-4-yl)-1H-indazol-3-amine]	7.34
Nc1n[nH]c2ccc(-c3ccnc4[nH]c(CCCN5CCOCC5)cc34)cc12 [Example 271, 5-(2-(3-Morpholinopropyl)-1H-pyrrolo[2,3-b]pyridin-4-yl)-1H-indazlo-3-amine]	6.95
Nc1n[nH]c2ccc(-c3ccnc4[nH]c(CC5CCNCC5)cc34)cc12 [Example 272, 5-(2-(Piperidin-4-ylmethyl)-1H-pyrrolo[2,3-b]pyridin-4-yl)-1H-indazol-3-amine]	7.28
